Values of other authors in PMC4603705, “A bioinspired peptide scaffold with high antibiotic activity and low in vivo toxicity” (Scientific Reports, 2015).

System: P. aeruginosa
Conditions: P. aeruginosa 40b strain characterisation; cited from earlier work

## C[C@@H](O)[C@H]1C(=O)N2C(C(=O)O)=C(SCCN=CN)C[C@H]12 [Imipenem]
  MIC, resistance profile of P. aeruginosa 40b: imipenem (MIC 32 mg/L)
